Measured values as given in US9730447B2, “Fungicidal amides” (E I DU PONT DE NEMOURS AND COMPANY, priority 2013, dated 2017).
Marks after values point to notes of the source that are not given here.

Key:
Format in all cases: in vivo
[1] = tested on: Erysiphe graminis f. sp. tritici; test: Test E: preventive spray on wheat seedlings, Erysiphe graminis f. sp. tritici (wheat powdery mildew), visual disease rating
Text: (§1) General protocol for preparing test suspensions for Tests A-E: the test compounds were first dissolved in acetone in an amount equal to 3% of the final volume and then suspended at the desired concentration (in ppm) in acetone and purified water (50/50 mix by volume) containing 250 ppm of the surfactant Trem® 014 (polyhydric alcohol esters). The resulting test suspensions were then used in Tests A-E. Compounds were sprayed with either a 40 ppm or 10 ppm (*) test suspension to the point of run-off on the test plants which is the equivalent of a rate of 160 g ai/ha or 40 g ai/ha, respectively.
The test suspension was sprayed to the point of run-off on wheat seedlings. The following day the seedlings were inoculated with a spore dust of Erysiphe graminis f. sp. tritici, (the causal agent of wheat powdery mildew) and incubated in a growth chamber at 20° C. for 8 days, after which time visual disease ratings were made.
(§2) Results for Tests A-E are given in Table A. In the Table, a rating of 100 indicates 100% disease control and a rating of 0 indicates no disease control (relative to the controls). A dash (-) indicates no test results.

[2] = tested on: Puccinia recondite f. sp. tritici; test: Test D: preventive spray on wheat seedlings, Puccinia recondite f. sp. tritici (wheat leaf rust), visual disease rating
Text: as §1
The test suspension was sprayed to the point of run-off on wheat seedlings. The following day the seedlings were inoculated with a spore suspension of Puccinia recondite f. sp. tritici; (the causal agent of wheat leaf rust) and incubated in a saturated atmosphere at 20° C. for 24 h, and then moved to a growth chamber at 20° C. for 6 days, after which time visual disease ratings were made.
as §2

Septoria tritici = test: Test C: preventive spray on wheat seedlings, Septoria tritici (wheat leaf blotch), visual disease rating
Text: as §1
The test suspension was sprayed to the point of run-off on wheat seedlings. The following day the seedlings were inoculated with a spore suspension of Septoria tritici (the causal agent of wheat leaf blotch) and incubated in a saturated atmosphere at 24° C. for 48 h, and then moved to a growth chamber at 20° C. for 21 days, after which time visual disease ratings were made.
as §2

[3] = tested on: Stagonospora nodorum (also known as Septoria nodorum); test: Test B: preventive spray on wheat seedlings, Stagonospora nodorum (wheat glume blotch), visual disease rating
Text: as §1
The test suspension was sprayed to the point of run-off on wheat seedlings. The following day the seedlings were inoculated with a spore suspension of Stagonospora nodorum (also known as Septoria nodorum; the causal agent of wheat glume blotch) and incubated in a saturated atmosphere at 20° C. for 48 h, and then moved to a growth chamber at 20° C. for 6 days, after which time visual disease ratings were made.
as §2

[4] = 100 = 100% disease control, 0 = no control, unmarked values
[5] = values marked with asterisk (*), meaning not given

SMILES: CCOC(=O)C1(C)CC(c2ccc(-c3ccccc3NC(=O)c3ncccc3C(F)(F)F)cn2)=NO1 (racemic) [compound 144]
- Test E disease control rating [1, 4]: 0%
- Test D disease control rating [2, 4]: 68%
- Test C disease control rating (Septoria tritici; [4]): 81%
- Test B disease control rating [3, 4]: 0%

SMILES: CCOC(=O)C1CC(c2ccc(-c3ccccc3NC(=O)c3ncccc3C(F)(F)F)cn2)=NO1 (racemic) [compound 145]
- Test E disease control rating [1, 4]: 0%
- Test D disease control rating [2, 4]: 0%
- Test C disease control rating (Septoria tritici; [4]): 26%
- Test B disease control rating [3, 4]: 0%

SMILES: CC1(C(=O)O)CC(c2ccc(-c3ccccc3NC(=O)c3ncccc3C(F)(F)F)cn2)=NO1 (racemic) [compound 146]
- Test E disease control rating [1, 4]: 0%
- Test D disease control rating [2, 4]: 0%
- Test C disease control rating (Septoria tritici; [4]): 1%
- Test B disease control rating [3, 4]: 0%

SMILES: O=C(NCCc1ncc(-n2ccc(C(F)(F)F)n2)cn1)c1ccccc1C(F)(F)F [Compound 177]
- Test E disease control rating [1, 4]: 79%
- Test D disease control rating [2, 4]: 0%
- Test C disease control rating (Septoria tritici; [4]): 91%

SMILES: Cc1ccn(-c2cnc(CCNC(=O)c3ncccc3C(F)(F)F)nc2)n1 [Compound 178]
- Test E disease control rating [1, 5]: 0* %
- Test D disease control rating [2, 5]: 0* %
- Test C disease control rating (Septoria tritici; [5]): 0* %
- Test B disease control rating [3, 5]: 3* %

SMILES: O=C(NCCc1ncc(-n2ccc(Br)n2)cn1)c1ncccc1C(F)(F)F [Compound 179]
- Test E disease control rating [1, 5]: 0* %
- Test D disease control rating [2, 5]: 0* %
- Test C disease control rating (Septoria tritici; [5]): 5* %
- Test B disease control rating [3, 4]: 0%

SMILES: O=C(NCCc1ncc(-n2cc(Br)cn2)cn1)c1ncccc1C(F)(F)F [Compound 180]
- Test E disease control rating [1, 5]: 0* %
- Test D disease control rating [2, 5]: 0* %
- Test C disease control rating (Septoria tritici; [5]): 2* %
- Test B disease control rating [3, 4]: 0%

SMILES: O=C(NCCc1ncc(-n2ccc(Cl)n2)cn1)c1ncccc1C(F)(F)F [Compound 181]
- Test E disease control rating [1, 5]: 0* %
- Test D disease control rating [2, 5]: 9* %
- Test C disease control rating (Septoria tritici; [5]): 20* %
- Test B disease control rating [3, 5]: 64* %

SMILES: Cc1cnn(-c2cnc(CCNC(=O)c3ncccc3C(F)(F)F)nc2)c1 [Compound 182]
- Test E disease control rating [1, 5]: 0* %
- Test D disease control rating [2, 5]: 0* %
- Test C disease control rating (Septoria tritici; [5]): 9* %
- Test B disease control rating [3, 4]: 0%

SMILES: O=C(Nc1ccccc1-c1ccc(-n2cccn2)nc1)c1ncccc1C(F)(F)F [compound 12]
- Test E disease control rating [1, 4]: 98%
- Test D disease control rating [2, 4]: 99%
- Test C disease control rating (Septoria tritici; [4]): 100%
- Test B disease control rating [3, 4]: 100%

SMILES: O=C(Nc1ccccc1-c1ccc(-n2cc(Br)cn2)nc1)c1ncccc1C(F)(F)F [compound 14]
- Test E disease control rating [1, 4]: 98%
- Test D disease control rating [2, 4]: 99%
- Test C disease control rating (Septoria tritici; [4]): 100%
- Test B disease control rating [3, 4]: 100%

SMILES: Cn1cc(C(=O)Nc2ccccc2-c2ccc(-n3cccn3)nc2)c(C(F)F)n1 [compound 15]
- Test E disease control rating [1, 4]: 97%
- Test D disease control rating [2, 4]: 100%
- Test C disease control rating (Septoria tritici; [4]): 100%
- Test B disease control rating [3, 4]: 99%

SMILES: COc1cccc(-c2cnn(-c3ccc(-c4ccccc4NC(=O)c4ncccc4C(F)(F)F)cn3)c2)c1 [compound 16]
- Test E disease control rating [1, 4]: 69%
- Test D disease control rating [2, 4]: 99%
- Test C disease control rating (Septoria tritici; [4]): 100%
- Test B disease control rating [3, 4]: 100%

SMILES: COc1cccc(C2CC(c3ccc(-c4ccccc4NC(=O)c4cn(C)nc4C(F)F)cn3)=NO2)c1 (stereo not shown) [compound 102]
- Test E disease control rating [1, 4]: 73%
- Test D disease control rating [2, 4]: 100%
- Test C disease control rating (Septoria tritici; [4]): 97%
- Test B disease control rating [3, 4]: 99%

SMILES: N#Cc1cc(-c2ccccc2NC(=O)c2ncccc2C(F)(F)F)cnc1-n1ccc(C(F)(F)F)n1 [compound 105]
- Test E disease control rating [1, 4]: 81%
- Test D disease control rating [2, 4]: 100%

SMILES: Cn1cc(C(=O)Nc2ccccc2-c2cnc(-n3ccc(C(F)(F)F)n3)c(C#N)c2)c(C(F)F)n1 [compound 106]
- Test E disease control rating [1, 4]: 98%
- Test D disease control rating [2, 4]: 100%

SMILES: Cc1nc(C(F)(F)F)c(C(=O)Nc2ccccc2-c2cnc(-n3ccc(C(F)(F)F)n3)c(C#N)c2)s1 [compound 107]
- Test E disease control rating [1, 4]: 43%
- Test D disease control rating [2, 4]: 99%

SMILES: N#Cc1cc(-c2ccccc2NC(=O)c2nccnc2Cl)cnc1-n1ccc(C(F)(F)F)n1 [compound 108]
- Test E disease control rating [1, 4]: 87%
- Test D disease control rating [2, 4]: 96%

SMILES: CCOC(=O)C1(C)CC(c2ccc(-c3ccccc3NC(=O)c3cn(C)nc3C(F)F)cn2)=NO1 (stereo not shown) [compound 109]
- Test E disease control rating [1, 4]: 0%
- Test D disease control rating [2, 4]: 74%
- Test C disease control rating (Septoria tritici; [4]): 66%

SMILES: CCOC(=O)C1CC(c2ccc(-c3ccccc3NC(=O)c3cn(C)nc3C(F)F)cn2)=NO1 (stereo not shown) [compound 110]
- Test E disease control rating [1, 4]: 0%
- Test D disease control rating [2, 4]: 68%
- Test C disease control rating (Septoria tritici; [4]): 22%

SMILES: O=C(Nc1ccccc1-c1cnc(-n2ccc(C(F)(F)F)n2)c(Cl)c1)c1cccs1 [compound 111]
- Test E disease control rating [1, 5]: 0* %
- Test D disease control rating [2, 5]: 84* %
- Test C disease control rating (Septoria tritici; [5]): 63* %

SMILES: O=C(Nc1ccccc1-c1cnc(-n2ccc(C(F)(F)F)n2)c(Cl)c1)c1ccsc1 [compound 112]
- Test E disease control rating [1, 5]: 0* %
- Test D disease control rating [2, 5]: 0* %
- Test C disease control rating (Septoria tritici; [5]): 77* %

SMILES: CC1=C(C(=O)Nc2ccccc2-c2cnc(-n3ccc(C(F)(F)F)n3)c(F)c2)SCCO1 [compound 113]
- Test E disease control rating [1, 4]: 0%
- Test D disease control rating [2, 4]: 97%
- Test C disease control rating (Septoria tritici; [4]): 77%
- Test B disease control rating [3, 4]: 0%

SMILES: Cc1cc(C)c(C(=O)Nc2ccccc2-c2cnc(-n3ccc(C(F)(F)F)n3)c(Cl)c2)s1 [compound 116]
- Test E disease control rating [1, 5]: 64* %
- Test D disease control rating [2, 5]: 99* %
- Test C disease control rating (Septoria tritici; [5]): 99* %

SMILES: O=C(Nc1ccccc1-c1cnc(-n2ccc(C(F)(F)F)n2)c(Cl)c1)c1occc1Br [compound 117]
- Test E disease control rating [1, 5]: 64* %
- Test D disease control rating [2, 5]: 99* %
- Test C disease control rating (Septoria tritici; [5]): 99* %

SMILES: Cc1occc1C(=O)Nc1ccccc1-c1cnc(-n2ccc(C(F)(F)F)n2)c(Cl)c1 [compound 118]
- Test E disease control rating [1, 5]: 0* %
- Test D disease control rating [2, 5]: 68* %
- Test C disease control rating (Septoria tritici; [5]): 42* %

SMILES: O=C(Nc1ccccc1-c1cnc(-n2ccc(C(F)(F)F)n2)c(Cl)c1)c1ccsc1Cl [compound 120]
- Test E disease control rating [1, 5]: 0* %
- Test D disease control rating [2, 5]: 100* %
- Test C disease control rating (Septoria tritici; [5]): 98* %

SMILES: Cc1oncc1C(=O)Nc1ccccc1-c1cnc(-n2ccc(C(F)(F)F)n2)c(Cl)c1 [compound 128]
- Test E disease control rating [1, 5]: 13* %
- Test D disease control rating [2, 5]: 67* %
- Test C disease control rating (Septoria tritici; [5]): 42* %

SMILES: Cn1ncnc1C(=O)Nc1ccccc1-c1cnc(-n2ccc(C(F)(F)F)n2)c(Cl)c1 [compound 129]
- Test E disease control rating [1, 5]: 0* %
- Test D disease control rating [2, 5]: 17* %
- Test C disease control rating (Septoria tritici; [5]): 88* %

SMILES: Cc1sccc1C(=O)Nc1ccccc1-c1cnc(-n2ccc(C(F)(F)F)n2)c(Cl)c1 [compound 138]
- Test E disease control rating [1, 5]: 64* %
- Test D disease control rating [2, 5]: 100* %
- Test C disease control rating (Septoria tritici; [5]): 99* %

SMILES: O=C(Nc1ccccc1-c1cnc(-n2ccc(C(F)(F)F)n2)c(Cl)c1)c1ccsc1Br [compound 139]
- Test E disease control rating [1, 5]: 40* %
- Test D disease control rating [2, 5]: 100* %
- Test C disease control rating (Septoria tritici; [5]): 98* %

SMILES: CSc1ccsc1C(=O)Nc1ccccc1-c1cnc(-n2ccc(C(F)(F)F)n2)c(Cl)c1 [compound 141]
- Test E disease control rating [1, 5]: 0* %
- Test D disease control rating [2, 5]: 97* %
- Test C disease control rating (Septoria tritici; [5]): 76* %

SMILES: CSc1sccc1C(=O)Nc1ccccc1-c1cnc(-n2ccc(C(F)(F)F)n2)c(Cl)c1 [compound 142]
- Test E disease control rating [1, 5]: 0* %
- Test D disease control rating [2, 5]: 97* %
- Test C disease control rating (Septoria tritici; [5]): 88* %

SMILES: N#Cc1cc(-c2ccccc2NC(=O)c2sccc2I)cnc1-n1ccc(C(F)(F)F)n1 [compound 143]
- Test E disease control rating [1, 5]: 64* %
- Test D disease control rating [2, 5]: 100* %
- Test C disease control rating (Septoria tritici; [5]): 100* %

SMILES: Cn1cc(C(=O)Nc2ccccc2-c2cnc(-n3cnc(C(F)(F)F)c3)c(F)c2)c(C(F)F)n1 [compound 153]
- Test E disease control rating [1, 5]: 40* %
- Test D disease control rating [2, 5]: 99* %
- Test C disease control rating (Septoria tritici; [5]): 99* %

SMILES: Cc1ncsc1C(=O)Nc1ccccc1-c1cnc(-n2ccc(C(F)(F)F)n2)c(Cl)c1 [compound 164]
- Test E disease control rating [1, 5]: 69* %
- Test D disease control rating [2, 5]: 91* %
- Test C disease control rating (Septoria tritici; [5]): 96* %
